Measured values: PubChem BioAssay AID2060902 (Molecular Pharmacology Branch, DTP, NCI, 2025)
pIC50: −log10 of the molar value.

Test system: 485368-065-R3-J5-PDC spheroids with HUVEC/MSC, viability
Assay: Anticancer human tumor 485368-065-R3-J5-PDC patient-derived pancreatic carcinoma cell line growth inhibition [RAS]
Conditions: for pIC50: curve of first compound; for viability, T/C: stronger effect = lower value; active = viability on the fitted dose curve at most 10% of control; inactive = the rest
Outline: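 Multi-cell-type spheroids: tumor cells plus HUVEC endothelial cells and mesenchymal stem cells. RAS-pathway inhibitors were combined with targeted agents, each dosed in half-log steps down from clinical Cmax, or from 10 microM when Cmax was unknown.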

[1] = second compound 0.000949 µM, first compound 0.0316 µM
[2] = second compound 0.000949 µM, first compound 0.1 µM
[3] = second compound 0.000949 µM, first compound 0.316 µM
[4] = second compound 0.000949 µM, first compound 1 µM
[5] = second compound 0.000949 µM, first compound 3.16 µM
[6] = second compound 0.000949 µM, first compound 10 µM
[7] = second compound 0.003 µM, first compound 0.0316 µM
[8] = second compound 0.003 µM, first compound 0.1 µM
[9] = second compound 0.003 µM, first compound 0.316 µM
[10] = second compound 0.003 µM, first compound 1 µM
[11] = second compound 0.003 µM, first compound 3.16 µM
[12] = second compound 0.003 µM, first compound 10 µM
[13] = second compound 0.00949 µM, first compound 0.0316 µM
[14] = second compound 0.00949 µM, first compound 0.1 µM
[15] = second compound 0.00949 µM, first compound 0.316 µM
[16] = second compound 0.00949 µM, first compound 1 µM
[17] = second compound 0.00949 µM, first compound 3.16 µM
[18] = second compound 0.00949 µM, first compound 10 µM
[19] = second compound 0.03 µM, first compound 0.0316 µM
[20] = second compound 0.03 µM, first compound 0.1 µM
[21] = second compound 0.03 µM, first compound 0.316 µM
[22] = second compound 0.03 µM, first compound 1 µM
[23] = second compound 0.03 µM, first compound 3.16 µM
[24] = second compound 0.03 µM, first compound 10 µM
[25] = second compound 0.0949 µM, first compound 0.0316 µM
[26] = second compound 0.0949 µM, first compound 0.1 µM
[27] = second compound 0.0949 µM, first compound 0.316 µM
[28] = second compound 0.0949 µM, first compound 1 µM
[29] = second compound 0.0949 µM, first compound 3.16 µM
[30] = second compound 0.0949 µM, first compound 10 µM
[31] = second compound 0.3 µM, first compound 0.0316 µM
[32] = second compound 0.3 µM, first compound 0.1 µM
[33] = second compound 0.3 µM, first compound 0.316 µM
[34] = second compound 0.3 µM, first compound 1 µM
[35] = second compound 0.3 µM, first compound 3.16 µM
[36] = second compound 0.3 µM, first compound 10 µM
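Note: spheroids exposed to agents for seven days before readout.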

CC(=O)OC12COC1CC(O)C1(C)C(=O)C(O)C3=C(C)C(OC(=O)C(O)C(NC(=O)OC(C)(C)C)c4ccccc4)CC(O)(C(OC(=O)c4ccccc4)C21)C3(C)C (stereo unspecified) + CCn1c(-c2cccnc2C(C)OC)c2c3cc(ccc31)N1CCOC(CC(NC(=O)C(C(C)C)N(C)C(=O)C3(F)CCN(C(=O)C#CC(C)(C)N(C)C)CC3)C(=O)N3CCCC(N3)C(=O)OCC(C)(C)C2)C1
inactive: viability, T/C [1] 12.6% | viability, T/C [2] 14.3% | viability, T/C [3] 13.1% | viability, T/C [4] 13.9% | viability, T/C [5] 21.4% | viability, T/C [6] 25.7% | viability, T/C [7] 15.6% | viability, T/C [8] 13.6% | viability, T/C [9] 14% | viability, T/C [10] 16.9% | viability, T/C [11] 18.9% | viability, T/C [12] 25.5% | viability, T/C [13] 13.2% | viability, T/C [14] 15.1% | viability, T/C [15] 14% | viability, T/C [16] 22.6% | viability, T/C [17] 21.1% | viability, T/C [18] 27.4% | viability, T/C [19] 12.2% | viability, T/C [20] 18.4% | viability, T/C [21] 19.4% | viability, T/C [22] 16.6% | viability, T/C [23] 21.1% | viability, T/C [24] 26% | viability, T/C [25] 10.7% | viability, T/C [26] 16.4% | viability, T/C [27] 14.5% | viability, T/C [28] 12.2% | viability, T/C [29] 21.3% | viability, T/C [30] 27.5% | viability, T/C [31] 13.1% | viability, T/C [32] 16.8% | viability, T/C [33] 15.9% | viability, T/C [34] 17.6% | viability, T/C [35] 27.7% | viability, T/C [36] 27.5%
> 7.50: pIC50 (second compound 0.000949 µM) | pIC50 (second compound 0.003 µM) | pIC50 (second compound 0.00949 µM) | pIC50 (second compound 0.03 µM) | pIC50 (second compound 0.0949 µM) | pIC50 (second compound 0.3 µM)

NC1c2ccccc2OC12CCN(c1cnc3c(N4CCCc5ncccc54)n[nH]c3n1)CC2 (stereo unspecified) + CCn1c(-c2cccnc2C(C)OC)c2c3cc(ccc31)N1CCOC(CC(NC(=O)C(C(C)C)N(C)C(=O)C3(F)CCN(C(=O)C#CC(C)(C)N(C)C)CC3)C(=O)N3CCCC(N3)C(=O)OCC(C)(C)C2)C1
inactive: viability, T/C [1] 84.7% | viability, T/C [2] 84.3% | viability, T/C [3] 81.9% | viability, T/C [4] 91.1% | viability, T/C [5] 86.6% | viability, T/C [6] 81.9% | viability, T/C [7] 85.7% | viability, T/C [8] 90.1% | viability, T/C [9] 82.8% | viability, T/C [10] 80.5% | viability, T/C [11] 92.8% | viability, T/C [12] 87.9% | viability, T/C [13] 89.7% | viability, T/C [14] 90.3% | viability, T/C [15] 82.6% | viability, T/C [16] 78.6% | viability, T/C [17] 88.9% | viability, T/C [18] 84.9% | viability, T/C [19] 98.7% | viability, T/C [20] 93% | viability, T/C [21] 82.7% | viability, T/C [22] 79.2% | viability, T/C [23] 83.6% | viability, T/C [24] 81.4% | viability, T/C [25] 82.3% | viability, T/C [26] 86.8% | viability, T/C [27] 81.1% | viability, T/C [28] 77% | viability, T/C [29] 87.7% | viability, T/C [30] 76.5% | viability, T/C [31] 78.3% | viability, T/C [32] 86.1% | viability, T/C [33] 75.3% | viability, T/C [34] 81.1% | viability, T/C [35] 98.2% | viability, T/C [36] 69.7%
< 5.00: pIC50 (second compound 0.000949 µM) | pIC50 (second compound 0.003 µM) | pIC50 (second compound 0.00949 µM) | pIC50 (second compound 0.03 µM) | pIC50 (second compound 0.0949 µM) | pIC50 (second compound 0.3 µM)

Nc1ccn(C2OC(CO)C(O)C2(F)F)c(=O)n1 (stereo unspecified) + CCn1c(-c2cccnc2C(C)OC)c2c3cc(ccc31)N1CCOC(CC(NC(=O)C(C(C)C)N(C)C(=O)C3(F)CCN(C(=O)C#CC(C)(C)N(C)C)CC3)C(=O)N3CCCC(N3)C(=O)OCC(C)(C)C2)C1
8.16: pIC50 (second compound 0.0949 µM)
8.15: pIC50 (second compound 0.000949 µM)
8.04: pIC50 (second compound 0.00949 µM)
8.17: pIC50 (second compound 0.003 µM) | pIC50 (second compound 0.03 µM)
inactive: viability, T/C (second compound 0.000949 µM, first compound 0.00316 µM) 94.9% | viability, T/C (second compound 0.000949 µM, first compound 0.01 µM) 30.4% | viability, T/C [1] 11.6% | viability, T/C [2] 11% | viability, T/C [3] 14.4% | viability, T/C [4] 11.8% | viability, T/C (second compound 0.003 µM, first compound 0.00316 µM) 89.2% | viability, T/C (second compound 0.003 µM, first compound 0.01 µM) 29.2% | viability, T/C [7] 10.5% | viability, T/C [8] 9.86% | viability, T/C [9] 13.8% | viability, T/C [10] 13.4% | viability, T/C (second compound 0.00949 µM, first compound 0.00316 µM) 94.2% | viability, T/C (second compound 0.00949 µM, first compound 0.01 µM) 46.6% | viability, T/C [13] 11.3% | viability, T/C [14] 11.4% | viability, T/C [15] 11.3% | viability, T/C [16] 12.1% | viability, T/C (second compound 0.03 µM, first compound 0.00316 µM) 89.7% | viability, T/C (second compound 0.03 µM, first compound 0.01 µM) 28.8% | viability, T/C [19] 12.1% | viability, T/C [20] 12.9% | viability, T/C [21] 11.7% | viability, T/C [22] 10.4% | viability, T/C (second compound 0.0949 µM, first compound 0.00316 µM) 96.9% | viability, T/C (second compound 0.0949 µM, first compound 0.01 µM) 26.8% | viability, T/C [25] 11.9% | viability, T/C [26] 9.81% | viability, T/C [27] 12.7% | viability, T/C [28] 10.6% | viability, T/C (second compound 0.3 µM, first compound 0.00316 µM) 94% | viability, T/C (second compound 0.3 µM, first compound 0.01 µM) 25.7% | viability, T/C [31] 12.1% | viability, T/C [32] 11% | viability, T/C [33] 11.5% | viability, T/C [34] 9.33%
8.18: pIC50 (second compound 0.3 µM)
